Entries after “also recorded” stand apart in the source; their conditions may differ.
Assays:
[1] = tested on: Polyposis-Primärgewebe; assay: Cytokine release from polyposis primary tissue; assay type: cell-based, Mensch; conditions: incubation of primary tissue
[2] = tested on: beta-Catenin; assay: Anti-(active-)beta-catenin immunohistochemistry on polyp single-cell suspensions (chamber slides); assay type: cell-based, Mensch; conditions: 24 h incubation
Method: Im entzündlichen Infiltrat des Polyposisgewebes ließ sich immunhistochemisch nukleäres beta-Catenin nachweisen.
Es wurde eine Anti-Active-beta-Catenin-Immunhistochemie auf mit dem GSK-3-Inhibitor SB216763 für 24 h inkubierter Polyposis-Einzelzellsuspension (Chamber Slide) durchgeführt.

[3] = tested on: WIF-1; conditions: Colon-Ca-Zelllinien; cited from earlier work

| SMILES | Ausschüttung von IL-6 [1] | Ausschüttung von IL-8 [1] | Akkumulation von beta-Catenin im Zytoplasma [2] | Translokation von beta-Catenin in den Zellkern [2] | Regulation von WIF-1 [3] |
| --- | --- | --- | --- | --- | --- |
| Cn1cc(C2=C(c3ccc(Cl)cc3Cl)C(=O)NC2=O)c2ccccc21 [SB216763] | verminderte Ausschüttung | verminderte Ausschüttung | Akkumulation von beta-Catenin im Zytoplasma; also recorded: deutliche Anreicherung | Translokation von beta-Catenin in den Zellkern |  |
| CC(=O)Oc1ccccc1C(=O)O [Acetylsalicylsäure] |  |  |  |  | Hochregulation |

— patent EP3325012B1, “CINEOLE-CONTAINING COMPOSITION FOR TREATING NOSE POLYPS” (Maria Clementine Martin Klosterfrau Vertriebsgesellschaft …, priority 2015, dated 2017)
